This note sets out measurements from EP3409761B1, “CULTURE MEDIUM COMPOSITION, AND METHOD FOR CULTURING CELL OR TISSUE USING SAID COMPOSITION” (Nissan Chemical Corporation, priority 2012, dated 2014).

SMILES strings stand for the structures.

Common to all, as to format: cell-based
The subject of assay [1] is human cervical cancer cell line HeLa. In words: Comparison with single layer culture method in cell proliferation test using anticancer drug. Particulars: day 4. As for the experimental part: This aqueous solution was sterilized at 121°C for 20 min in an autoclave. […] Each plate was cultured by being stood still in a CO2 incubator (37°C, 5% CO2). […] The anticancer drug used was Adriamycin (manufactured by WAKO), Paclitaxel (manufactured by WAKO) or Mitomycin C (manufactured by WAKO). To the culture medium on day 4 was added an ATP reagent (150 µL) (CellTiter-Glo (registered trade mark) Luminescent Cell Viability Assay, manufactured by Promega) to give a suspension, which was stood for about 10 min at room temperature, and the luminescence intensity (RLU value) was measured by FlexStation3 (manufactured by Molecular Devices), and the number of viable cells was measured by subtracting the luminescence value of the medium alone. For WST-8 measurement, a WST-8 solution (manufactured by DOJINDO Laboratories, 15 µL) was added, the mixture was incubated at 37°C for 100 min, the absorbance at 450 nm was measured by an absorbance spectrometer (manufactured by Molecular Devices, SPECTRA MAX 190), and the number of viable cells was measured by subtracting the absorbance of the medium alone.

Assay [2] has the same test system. The experiment in a line: Cell proliferation test using various anticancer drugs. Particulars: DAG 0.030% medium; for cell density: 5 days later. As to the method: This aqueous solution was sterilized at 121°C for 20 min in an autoclave. […] The anticancer drug used was Adriamycin (manufactured by WAKO), Paclitaxel (manufactured by WAKO) or Mitomycin C (manufactured by WAKO).
Successively, this plate was cultured by being stood still in a CO2 incubator (37°C, 5% CO2) for 7 days. After culturing for 3, 5, 7 days, to the culture medium was added a WST-8 solution (manufactured by DOJINDO Laboratories, 20 µL), and the mixture was incubated at 37°C for 100 min. The absorbance at 450 nm was measured by an absorbance spectrometer (manufactured by Molecular Devices, SPECTRA MAX 190), and the number of viable cells was measured by subtracting the absorbance of the medium alone. The culture medium containing the cells after 5 days of culture was stirred with a pipette and the obtained stirred solution (20 µL) was mixed with Trypan Blue stain 0.4% (manufactured by Invitrogen, 20 µL) and the cell density was measured under a microscope.

For assay [3] the test system is unchanged. In words: Comparison with single layer culture method using agent for inducing apoptosis. As to conditions: agent 1 µM, day 4. As to the method:
This aqueous solution was sterilized at 121°C for 20 min in an autoclave. […] Each plate was cultured by being stood still in a CO2 incubator (37°C, 5% CO2). […] To the culture medium on day 4 was added an ATP reagent (150 µL) (CellTiter-Glo (registered trade mark) Luminescent Cell Viability Assay, manufactured by Promega) to give a suspension, which was stood for about 10 min at room temperature, and the luminescence intensity (RLU value) was measured by FlexStation3 (manufactured by Molecular Devices), and the number of viable cells was measured by subtracting the luminescence value of the medium alone. For WST-8 measurement, a WST-8 solution (manufactured by DOJINDO Laboratories, 15 µL) was added, the mixture was incubated at 37°C for 100 min, the absorbance at 450 nm was measured by an absorbance spectrometer (manufactured by Molecular Devices, SPECTRA MAX 190), and the number of viable cells was measured by subtracting the absorbance of the medium alone.

For assay [4], the system named is human lung cancer cell line A549. In words: A549 cell proliferation test using Trametinib and MK-2206. As to conditions: day 4 of the static culture. As to the method: (§1) This aqueous solution was sterilized at 121°C for 20 min in an autoclave. […] Each plate was cultured by being stood still in a CO2 incubator (37°C, 5% CO2). […] The anticancer drugs used were Trametinib (manufactured by Santa Cruz, MEK inhibitor) and MK-2206 (manufactured by Santa Cruz, Akt inhibitor). […]

In assay [5] the test system is human cervical cancer cell line HeLa. The experiment in a line: HeLa cell proliferation test using Trametinib and MK-2206. As to conditions: day 4 of the static culture. As for the experimental part: as §1
[6] abbreviates: drug 0.001 µM, deacylated gellan gum addition group (0.015%).
[7] abbreviates: drug 0.001 µM, single layer culture group.
[8] abbreviates: drug 0.01 µM, deacylated gellan gum addition group (0.015%).
Where [9] appears, read: drug 0.01 µM, single layer culture group.
The mark [10] stands for this setting: drug 0.1 µM, deacylated gellan gum addition group (0.015%).
Where [11] appears, read: drug 0.1 µM, single layer culture group.
The mark [12] stands for this setting: drug 1 µM, deacylated gellan gum addition group (0.015%).
The mark [13] stands for this setting: drug 1 µM, single layer culture group.
Where [14] appears, read: deacylated gellan gum addition group (0.015%).
Setting [15] is: drug 0.03 µM, deacylated gellan gum addition group (0.015%).
[16] abbreviates: drug 0.03 µM, single layer culture group.
The mark [17] stands for this setting: drug 0.3 µM, deacylated gellan gum addition group (0.015%).
Where [18] appears, read: drug 0.3 µM, single layer culture group.
Where [19] appears, read: drug 3 µM, deacylated gellan gum addition group (0.015%).
[20] abbreviates: drug 3 µM, single layer culture group.
Where [21] appears, read: drug 30 µM, deacylated gellan gum addition group (0.015%).
Setting [22] is: drug 30 µM, single layer culture group.

Turning to `COc1cccc2c1C(=O)c1c(O)c3c(c(O)c1C2=O)C[C@@](O)(C(=O)CO)C[C@@H]3O[C@H]1C[C@H](N)[C@H](O)[C@H](C)O1` [Adriamycin], the “% Control value of the RLU value (ATP measurement)” value (“% Control value of the RLU value” for short) in assay [1] (setting [6]) came out at 96 % Control; in assay [1] (setting [7]) it was 97 % Control; in assay [1] (setting [8]), 81 % Control; in assay [1] (setting [9]), 97 % Control; in assay [1] (setting [10]), 41 % Control; in assay [1] (setting [11]), 65 % Control. Further, the “% Control value of the RLU value” value in assay [1] (setting [12]) stood at 15 % Control; in assay [1] (setting [13]) it was 5 % Control; in assay [3] (setting [14]) it was 5 % Control; in assay [3] (single layer culture group), 3 % Control. Besides, the “% Control value of the absorbance at 450 nm (WST-8 measurement)” value in assay [1] (setting [6]) stood at 105 % Control; in assay [1] (setting [7]) it was 109 % Control; in assay [1] (setting [8]), 86 % Control; in assay [1] (setting [9]), 107 % Control; in assay [1] (setting [10]), 36 % Control; in assay [1] (setting [11]), 74 % Control. The “% Control value of the absorbance at 450 nm (WST-8 measurement)” value in assay [1] (setting [12]) amounted to 4 % Control; in assay [1] (setting [13]), 6 % Control; in assay [3] (setting [14]) it was 3 % Control; in assay [3] (single layer culture group), 3 % Control. Also, the cell density in assay [2] (drug 0.001 µM) was 5.1 10^4 cells/mL; in assay [2] (drug 0.01 µM), 2.6 10^4 cells/mL; in assay [2] (drug 0.1 µM), 1.7 10^4 cells/mL; in assay [2] (drug 1 µM) it was 0.6 10^4 cells/mL. Besides, the “cell number (absorbance at 450 nm, WST-8)” value is reported as 0.237 in assay [2] (drug 0.001 µM, day 3); 0.246 in assay [2] (drug 0.001 µM, day 5); 0.184 in assay [2] (drug 0.001 µM, day 7); 0.230 in assay [2] (drug 0.01 µM, day 3); 0.098 in assay [2] (drug 0.01 µM, day 5); 0.068 in assay [2] (drug 0.01 µM, day 7). The “cell number (absorbance at 450 nm, WST-8)” value is reported as 0.037 in assay [2] (drug 0.1 µM, day 3); 0.005 in assay [2] (drug 0.1 µM, day 5); less than 0 in assay [2] (drug 0.1 µM, day 7); less than 0 in assay [2] (drug 1 µM, day 3); less than 0 in assay [2] (drug 1 µM, day 5); less than 0 in assay [2] (drug 1 µM, day 7).

Consider `NC1(c2ccc(-c3nc4ccn5c(=O)[nH]nc5c4cc3-c3ccccc3)cc2)CCC1` [MK-2206], for which the “% Control value of the RLU value” value in assay [4] (setting [15]) is 84 % Control; in assay [4] (setting [16]), 93 % Control; in assay [4] (setting [17]), 45 % Control; in assay [4] (setting [18]) it was 79 % Control; in assay [4] (setting [19]) it was 21 % Control; in assay [4] (setting [20]) it was 53 % Control. For the same molecule, the “% Control value of the RLU value” value in assay [4] (setting [21]) is recorded as 0 % Control; in assay [4] (setting [22]), 0 % Control; in assay [5] (setting [15]) it was 57 % Control; in assay [5] (setting [16]), 93 % Control; in assay [5] (setting [17]), 21 % Control; in assay [5] (setting [18]), 84 % Control. Further, the “% Control value of the RLU value” value in assay [5] (setting [19]) was 21 % Control; in assay [5] (setting [20]) it was 69 % Control; in assay [5] (setting [21]), 0 % Control; in assay [5] (setting [22]) it was 0 % Control.

As to `CC(=O)Nc1cccc(-n2c(=O)n(C3CC3)c(=O)c3c(Nc4ccc(I)cc4F)n(C)c(=O)c(C)c32)c1` [Trametinib], the “% Control value of the RLU value” value in assay [4] (setting [6]) is listed as 72 % Control; in assay [4] (setting [7]), 71 % Control; in assay [4] (setting [8]), 35 % Control; in assay [4] (setting [9]), 37 % Control; in assay [4] (setting [10]) it was 2 % Control; in assay [4] (setting [11]), 5 % Control. For the same molecule, the “% Control value of the RLU value” value came out at 0 % Control in assay [4] (setting [12]); 1 % Control in assay [4] (setting [13]); 73 % Control in assay [5] (setting [6]); 102 % Control in assay [5] (setting [7]); 12 % Control in assay [5] (setting [8]); 93 % Control in assay [5] (setting [9]). For the same molecule, the “% Control value of the RLU value” value in assay [5] (setting [10]) is reported as 1 % Control; in assay [5] (setting [11]), 20 % Control; in assay [5] (setting [12]), 1 % Control; in assay [5] (setting [13]) it was 3 % Control.
